Reference: US20220062240A1, “METHODS OF TREATING CANCER USING A CLK INHIBITOR” (BioSplice Therapeutics, Inc., priority 2018, published 2022)
Like-named read-outs stand apart in the source and are kept apart here.

Key:
CLK3 = CLK3 (Homo sapiens, UniProt P49761); assay: CLK3 kinase activity assay (Z-lyte, Ser/Thr 18 peptide)
[1] = test system: liver cancer (3 cell lines); assay: CellTiter-Glo Viability Assay, liver cancer; type: cell-based; settings: Homo sapiens, inhibition of cancer cell proliferation
[2] = test system: pancreatic cancer (8 cell lines); assay: CellTiter-Glo Viability Assay, pancreatic cancer; type: cell-based; settings: Homo sapiens, inhibition of cancer cell proliferation
[3] = test system: prostate cancer (5 cell lines); assay: CellTiter-Glo Viability Assay, prostate cancer; type: cell-based; settings: Homo sapiens
MCF7 = assay: CellTiter-Glo Viability Assay, breast cancer; type: cell-based; settings: Homo sapiens, 96 h; MCF7, breast cancer, four days; read-out: EC50
CAMA1 = assay: CellTiter-Glo Viability Assay, breast cancer; type: cell-based; settings: Homo sapiens, CAMA-1, 96 h; CAMA1, breast cancer, four days; read-out: EC50
HCC1599 = assay: CellTiter-Glo Viability Assay, breast cancer; type: cell-based; settings: Homo sapiens, 96 h; HCC1599, breast cancer, four days; read-out: EC50
BT-549 = assay: CellTiter-Glo Viability Assay, breast cancer; type: cell-based; settings: Homo sapiens, 96 h; BT-549, breast cancer, four days; read-out: EC50
DU4475 = assay: CellTiter-Glo Viability Assay, breast cancer; type: cell-based; settings: Homo sapiens, DU-4475, 96 h; DU4475, breast cancer, four days; read-out: EC50
ZR-75-1 = assay: CellTiter-Glo Viability Assay, breast cancer; type: cell-based; settings: Homo sapiens, 96 h; ZR-75-1, breast cancer, four days; read-out: EC50
MDA-MB-231-Luc = assay: CellTiter-Glo Viability Assay, breast cancer; type: cell-based; settings: Homo sapiens, 96 h; MDA-MB-231-Luc, breast cancer, four days; read-out: EC50
T47D = assay: CellTiter-Glo Viability Assay, breast cancer; type: cell-based; settings: Homo sapiens, 96 h, breast cancer, four days, read-out: EC50
[4] = test system: lung cancer (4 cell lines); assay: CellTiter-Glo Viability Assay, lung cancer; type: cell-based; settings: Homo sapiens, inhibition of cancer cell proliferation
all 50 cell lines = assay: CellTiter-Glo Viability Assay, average across all cell lines; type: cell-based; settings: Homo sapiens; across all 50 cell lines; read-out: average EC50 for inhibition of cancer cell proliferation
How it was run: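 Cells were plated at 300-3,000 per well in their own media, then treated with compound in duplicate, with DMSO wells as controls. After four days at 37° C and 5% CO2, CellTiter-Glo was added, and luminescence was read. EC50s were fitted.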

[5] = test system: ovarian cancer (4 cell lines); assay: CellTiter-Glo Viability Assay, ovarian cancer; type: cell-based; settings: Homo sapiens, inhibition of cancer cell proliferation
[6] = test system: colorectal cancer (6 cell lines); assay: CellTiter-Glo Viability Assay, colorectal cancer; type: cell-based; settings: Homo sapiens, inhibition of cancer cell proliferation
[7] = test system: haematopoietic & lymphoid tumors (13 cell lines); assay: CellTiter-Glo Viability Assay, haematopoietic & lymphoid tumors; type: cell-based; settings: Homo sapiens, inhibition of cancer cell proliferation

Chain of CLK3 (P49761 whole entry): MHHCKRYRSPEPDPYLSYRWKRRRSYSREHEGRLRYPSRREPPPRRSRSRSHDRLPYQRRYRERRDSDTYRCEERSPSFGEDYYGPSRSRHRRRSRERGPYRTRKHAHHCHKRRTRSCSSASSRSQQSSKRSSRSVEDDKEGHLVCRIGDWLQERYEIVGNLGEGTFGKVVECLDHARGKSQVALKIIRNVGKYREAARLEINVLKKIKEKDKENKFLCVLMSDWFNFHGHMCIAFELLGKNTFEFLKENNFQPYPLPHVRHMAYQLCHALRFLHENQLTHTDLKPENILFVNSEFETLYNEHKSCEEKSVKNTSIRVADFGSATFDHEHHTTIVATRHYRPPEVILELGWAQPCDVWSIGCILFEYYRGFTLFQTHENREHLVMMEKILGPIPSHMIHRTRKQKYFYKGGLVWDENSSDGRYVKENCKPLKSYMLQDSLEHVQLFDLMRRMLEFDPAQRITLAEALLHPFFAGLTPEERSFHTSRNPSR

**Q.** For `COc1ccc(NC(=O)c2n[nH]c3ccc(-c4cncc(CN5CCCCC5)c4)cc23)cn1` [Compound 59], which EC50 (CLK3) is on record?
**A.** 61.1 nM

**Q.** What about the EC50 ([1]; SNU-398, SNU398 cell line, read-out: Liver cancer, EC50 SNU398) of the same compound?
**A.** 161 nM

**Q.** And the EC50 ([1]; HEPG2 cell line, read-out: Liver cancer, EC50 HEPG2)?
**A.** 428 nM

**Q.** What about the EC50 ([1]; PLC/PRF/5 cell line, read-out: Liver cancer, EC50 PLC/PRF/5) of the same compound?
**A.** 1030 nM

**Q.** What about the EC50 ([2]; BXPC-3, BxPC3 cell line, read-out: Pancreatic cancer, EC50 BxPC3) of the same compound?
**A.** 1050 nM

**Q.** What about the EC50 ([2]; CAPAN-1, Capan1 cell line, read-out: Pancreatic cancer, EC50 Capan1) of the same compound?
**A.** 228 nM

**Q.** And the EC50 ([2]; Capan-2, Capan2 cell line, read-out: Pancreatic cancer, EC50 Capan2)?
**A.** 55 nM

**Q.** And the EC50 ([2]; MIA PaCa-2 cell line, read-out: Pancreatic cancer, EC50 MIA PaCa-2)?
**A.** 175 nM

**Q.** What about the EC50 ([2]; PANC 05.04 cell line, read-out: Pancreatic cancer, EC50 PANC 05.04) of the same compound?
**A.** 226 nM

**Q.** And the EC50 ([2]; PANC-1 cell line, read-out: Pancreatic cancer, EC50 PANC-1)?
**A.** 666 nM

**Q.** And the EC50 ([2]; UPAFII cell line, read-out: Pancreatic cancer, EC50 UPAFII)?
**A.** 282 nM

**Q.** And the EC50 ([3]; DU-145, read-out: Prostate cancer EC50 Du-145)?
**A.** 563 nM

**Q.** And the EC50 ([3]; PC-3, PC3 cell line, inhibition of cancer cell proliferation, read-out: Prostate cancer EC50 PC3)?
**A.** 394 nM

**Q.** What about the EC50 ([3]; 22Rv1 cell line, inhibition of cancer cell proliferation, read-out: Prostate cancer EC50 22Rv1) of the same compound?
**A.** 253 nM

**Q.** What about the EC50 ([3]; LNCap clone FGC cell line, inhibition of cancer cell proliferation, read-out: Prostate cancer EC50 LNCap clone FGC) of the same compound?
**A.** 553 nM

**Q.** What about the EC50 ([3]; VCaP (Sigma) cell line, inhibition of cancer cell proliferation, read-out: Prostate cancer EC50 VCaP (Sigma)) of the same compound?
**A.** 612 nM

**Q.** What about the EC50 (MCF7) of the same compound?
**A.** 853 nM

**Q.** And the EC50 (CAMA1)?
**A.** 345 nM

**Q.** What about the EC50 (HCC1599) of the same compound?
**A.** 286 nM

**Q.** And the EC50 (BT-549)?
**A.** 473 nM

**Q.** What about the EC50 (DU4475) of the same compound?
**A.** 178 nM

**Q.** And the EC50 (ZR-75-1)?
**A.** 653 nM

**Q.** What about the EC50 (MDA-MB-231-Luc) of the same compound?
**A.** 636 nM

**Q.** What about the EC50 (T47D) of the same compound?
**A.** 730 nM

**Q.** What about the EC50 ([4]; A-427, A427 cell line, read-out: Lung cancer, EC50 (μM) A427) of the same compound?
**A.** 0.443 µM

**Q.** What about the EC50 ([4]; HCC78, HCC-78 cell line, read-out: Lung cancer, EC50 (μM) HCC-78) of the same compound?
**A.** 0.997 µM

**Q.** What about the EC50 ([4]; NCI-H460 cell line, read-out: Lung cancer, EC50 (μM) NCI-H460) of the same compound?
**A.** 0.32 µM

**Q.** And the EC50 ([4]; NCI-H522 cell line, read-out: Lung cancer, EC50 (μM) NCI-H522)?
**A.** 0.19 µM

**Q.** What about the EC50 (all 50 cell lines) of the same compound?
**A.** 434 nM

**Q.** And the EC50 ([5]; PA-1, PA1 cell line, read-out: Ovarian cancer, EC50 (μM) PA1)?
**A.** 0.27 µM

**Q.** And the EC50 ([5]; TOV112D, TOV-112D cell line, read-out: Ovarian cancer, EC50 (μM) TOV-112D)?
**A.** 0.264 µM

**Q.** What about the EC50 ([5]; OV-90 cell line, read-out: Ovarian cancer, EC50 (μM) OV-90) of the same compound?
**A.** 0.936 µM

**Q.** And the EC50 ([5]; OVCAR-3 cell line, read-out: Ovarian cancer, EC50 (μM) OVCAR-3)?
**A.** 0.1 µM

**Q.** What about the EC50 ([6]; HCT-116, HCT116 cell line, read-out: Colorectal cancer, EC50 (μM) HCT116) of the same compound?
**A.** 0.193 µM

**Q.** What about the EC50 ([6]; HT-29, HT29 cell line, read-out: Colorectal cancer, EC50 (μM) HT29) of the same compound?
**A.** 0.666 µM

**Q.** And the EC50 ([6]; SW-620, SW620 cell line, read-out: Colorectal cancer, EC50 (μM) SW620)?
**A.** 0.187 µM

**Q.** And the EC50 ([6]; DLD-1 cell line, read-out: Colorectal cancer, EC50 (μM) DLD-1)?
**A.** 0.376 µM

**Q.** What about the EC50 ([6]; SW48 cell line, read-out: Colorectal cancer, EC50 (μM) SW48) of the same compound?
**A.** 0.132 µM

**Q.** What about the EC50 ([6]; SW480 cell line, read-out: Colorectal cancer, EC50 (μM) SW480) of the same compound?
**A.** 0.353 µM

**Q.** What about the EC50 ([7]; DND41, DND-41 cell line, read-out: Haematopoietic & Lymphoid tumors, EC50 (μM) DND-41) of the same compound?
**A.** 0.529 µM

**Q.** And the EC50 ([7]; MV4-11, MV-4-11 cell line, read-out: Haematopoietic & Lymphoid tumors, EC50 (μM) MV-4-11)?
**A.** 0.077 µM

**Q.** What about the EC50 ([7]; Rec1, REC-1 cell line, read-out: Haematopoietic & Lymphoid tumors, EC50 (μM) REC-1) of the same compound?
**A.** 0.133 µM

**Q.** What about the EC50 ([7]; SU-DHL-4, SUDHL4 cell line, read-out: Haematopoietic & Lymphoid tumors, EC50 (μM) SUDHL4) of the same compound?
**A.** 0.525 µM

**Q.** And the EC50 ([7]; HL-60 cell line, read-out: Haematopoietic & Lymphoid tumors, EC50 (μM) HL-60)?
**A.** 1.24 µM

**Q.** What about the EC50 ([7]; JM1 cell line, read-out: Haematopoietic & Lymphoid tumors, EC50 (μM) JM1) of the same compound?
**A.** 0.115 µM

**Q.** And the EC50 ([7]; JURKAT, Clone E6-1 cell line, read-out: Haematopoietic & Lymphoid tumors, EC50 (μM) JURKAT, Clone E6-1)?
**A.** 1.02 µM

**Q.** And the EC50 ([7]; JeKo-1 cell line, read-out: Haematopoietic & Lymphoid tumors, EC50 (μM) JeKo-1)?
**A.** 0.141 µM

**Q.** What about the EC50 ([7]; KASUMI-1 cell line, read-out: Haematopoietic & Lymphoid tumors, EC50 (μM) KASUMI-1) of the same compound?
**A.** 0.157 µM

**Q.** And the EC50 ([7]; Loucy cell line, read-out: Haematopoietic & Lymphoid tumors, EC50 (μM) Loucy)?
**A.** 0.304 µM

**Q.** And the EC50 ([7]; MOLT-4 cell line, read-out: Haematopoietic & Lymphoid tumors, EC50 (μM) MOLT-4)?
**A.** 0.689 µM

**Q.** And the EC50 ([7]; TF-1 cell line, read-out: Haematopoietic & Lymphoid tumors, EC50 (μM) TF-1)?
**A.** 0.41 µM

**Q.** And the EC50 ([7]; TOLEDO cell line, read-out: Haematopoietic & Lymphoid tumors, EC50 (μM) TOLEDO)?
**A.** 0.121 µM
